From patent publication US20110183336A1, “Method to Predict Responsiveness of Breast Cancer to Polyamine-Type Chemotherapy” (THE REGENTS OF THE UNIVERSITY OF CALIFORNIA, priority 2007, published 2011) come the findings set out here.

Holding throughout (format): cell-based
Assay [1] deals with Human breast cancer cell line MCF7. Kind of assay: Colony formation (plating efficiency) standard protocol. Conditions: MCF7, MCF7, 4 hours exposure, colony formation day 15-20, read-out: ED50 (the source's name). How it is done:
(§1) Cell lines and media: Human breast cancer cell line MCF7 was grown in Richter's Improved Modified Eagle's Medium supplemented with 10% fetal bovine serum (FBS) and 2.2 g/L sodium bicarbonate. Human brain cancer cell line U251MG-NCI was grown in Dulbecco's Modified Eagle's Medium supplemented with 10% FBS. Human lung cancer cell line A549 was grown in Ham's F-12K medium (Fisher Scientific, Itasca, Ill.), supplemented with 10% FBS and 2 mM L-glutamine. Human colon cancer cell line HT29 was cultured in McCoy's 5A medium (Gibco, BRL, Gaithersburg, Md.), supplemented with 10% FBS. Human prostate cancer cell line PC3 was grown in Dulbecco's Modified Eagles Medium supplemented with 5% FBS. The A549 and MCF7 cell lines were cultured in 100 units/mL penicillin and 100 μg/mL streptomycin. HT29 and U251MG cell lines were grown in 50 μg/mL gentamycin. PC3 cell lines were maintained in 1% antibiotic-antimycotic solution (Sigma, St. Louis, Mo.). The cell cultures were maintained at 37° C. in 5% CO2/95% humidified air. All cell cultures are available from the American Type Culture Collection, Rockville, Md.
(§2) A standardized protocol was used to evaluate these test cultures:
(§3) Day 1: Ten standard culture flasks for each drug to be tested were plated with 5×10^5 cells of a given type in 5 mL of media and allowed to incubate for 16-24 hours at 37° C.
(§4) Day 2: Fresh stocks of the compounds to be evaluated are prepared. For each drug, two of the ten culture flasks prepared on Day 1 are used as controls. The control flasks are treated with solvent only. Four flasks for each compound are then treated with serially-diluted concentrations of the compound. The remaining flasks are left untouched. The cells are incubated for 4 hours at 37° C.
(§5) After 4 hours the control flasks are counted (2 counts for each flask) and the cells per mL calculated based on the average of the control counts. The cells are then re-plated into six 60 mm dishes for each flask from dilutions based on the cells/mL of the control. (In the various test runs, cell concentrations ranged from approximately 50 to approximately 800 cells per mL.)
(§6) Day 15-20: The cells are monitored for colony formation. When visible, the cells are stained with 0.5% crystal violet (in 95% EtOH) and counted. The plating efficiency for each dish is then calculated. The plating efficiencies of the six dishes for each flask are averaged and the standard deviation is calculated. The fraction of cell survival at each concentration is determined based on the controls.

Assay [2] has as its system HT-29. The assay can be described thus: MTT assay, percent cell survival. The following applies: Homo sapiens, HT-29, 144 h, HT-29, MTT, six days after drug treatment; read-out: ID50(μM) HT-29. On the procedure: as §1
(§7) Here, a conventional MTT assay was used to evaluate percent cell survival. Exponentially growing monolayer cells were plated in 96-well plates at a density of 500 cells per well and allowed to grow for 24 hours. Serial dilutions of the drugs were added to the wells. Six days after drug treatment, 25 μl of MTT solution (5 mg/ml) was added to each well and incubated for 4 hours at 37° C. Then 100 μl of lysis buffer (20% sodium dodecyl sulfate, 50% DMF, and 0.8% acetic acid, pH 4.7) was added to each well and incubated for an additional 22 hours. A microplate reader (“EMAX”-brand, Molecular Devices, Sunnyvale, Calif.) set at 570 nm was used to determine the optical density of the cultures. Results are expressed as a ratio of the optical density in drug-treated wells to the optical density in wells treated with vehicle only.
(§8) The ID50 is the drug concentration that killed 50% of the cultured cells.
Background: Tetrazolium dyes change colour on reduction, which living cells bring about.

In assay [3] the test system is MCF7. Kind of assay: MTT assay, percent cell survival. The following applies: Homo sapiens, MCF7, 144 h, six days after drug treatment, read-out: ID50(μM) MCF7. How it is done:
as §1, §7, §8

For assay [4], the system named is U251MG NCl. Kind of assay: MTT assay, percent cell survival. The following applies: Homo sapiens, U-251, 144 h, six days after drug treatment, read-out: ID50(μM) U251MG NCl. How it is done:
as §1, §7, §8

In assay [5] the test system is human brain cancer cell line U251MG-NCI. Kind of assay: Colony formation (plating efficiency) standard protocol. On the procedure:
as §1, §2, §3, §4, §5, §6

In assay [6] the test system is A549. Kind of assay: MTT assay, percent cell survival. The following applies: Homo sapiens, A549, 144 h, six days after drug treatment, read-out: ID50(μM) A549. On the procedure:
Human brain cancer cell line U251MG-NCI was grown in Dulbecco's Modified Eagle's Medium supplemented with 10% FBS. […] Human prostate cancer cell line PC3 was grown in Dulbecco's Modified Eagles Medium supplemented with 5% FBS. […] The cell cultures were maintained at 37° C. in 5% CO2/95% humidified air.
as §7, §8

For assay [7], the system named is PC-3. Kind of assay: MTT assay, percent cell survival. The following applies: Homo sapiens, PC-3, 144 h, PC-3, MTT, six days after drug treatment; read-out: ID50(μM) PC-3. On the procedure:
as §1, §7, §8

Structures are written as SMILES.

Take `CCNCCCNCC1CCC1CNCCCNCC` (stereo not drawn) [SL-11043]: the EC50 in assay [1] amounted to 1640 nM. For the same molecule, the IC50 in assay [2] was determined as 1.5 µM; in assay [3] it was 25.5 µM; in assay [4] it was 0.1 µM.
For `CCNCCCNCC1CC1CNCCCNCC` (stereo not drawn) [SL-11038], the EC50 in assay [1] was 1340 nM.
For the molecule `CCNCCCNC1CC1NCCCNCC` (stereo not drawn) [SL-11027], the “inhibition of cell growth” value in assay [5] (10 μM dose) is reported as “marked inhibition of cell growth”.
Turning to `CCNCCCNCC1CCC1CNCCCNCC` (stereo not drawn) [SL-11044], the IC50 in assay [6] was found to be 0.3 µM.
Regarding `CCNCCCNCC1CC1CNCCCNCC` (stereo not drawn) [SL-11037], the IC50 is 1.6 µM in assay [2], more than 31.2 µM in assay [3], 7.4 µM in assay [7] and 0.1 µM in assay [4].
For the molecule `CCNCCCNC1CCC1NCCCNCC` (stereo not drawn) [SL-11034], the “inhibition of cell growth” value in assay [5] (40 μM dose) is reported as “marked inhibition of cell growth”.
